Reference: patent US11235001B2, “RUNX inhibitor” (KYOTO UNIVERSITY, priority 2016, dated 2022)

Assays:
DU-145 cells = test: cells; details: Homo sapiens, DU-145, 48 h, read-out: IC50 (μM) in DU-145 cells
LNCaP cells = test: cells; details: Homo sapiens, 48 h, read-out: IC50 (μM) in LNCaP cells
[1] = tested on: medulloblastoma cell line DAOY; test: cells; details: Homo sapiens, 48 h
[2] = tested on: p53-mutated colon cancer cell line HT29; details: HT29, 72 hours
MV4-11 cells = test: Xenograft AML mouse model (MV4-11); assay type: in vivo; details: NOG mice with MV4-11, day 14
[3] = tested on: BCL11A, TRIM24, p53, p21, BAX, PUMA and MDM2; test: qRT-PCR of p53 suppressors and p53 target genes in MV4-11 cells; assay type: cell-based, human; details: 1 μM, 6 hours
Protocol: A total RNA was isolated with RNeasy mini kit (Qiagen) and reverse transcribed with Reverse script kit (TOYOBO) to generate cDNA. Real-time quantitative polymerase chain reaction (PCR) was carried out with 7500 Real-Time PCR System (Applied Biosystems) according to the manufacturer's instructions. Results were normalized to GAPDH levels. Relative expression levels were calculated using the 2-ΔΔCt method.

SU/SR cells [4] = details: read-out: IC50 value; SU/SR (imatinib-resistant), 48 hours
[5] = tested on: RUNX family (RUNX1, RUNX2 and RUNX3); test: Gene expression microarray in MV4-11 cells vs RUNX family knockdown; assay type: cell-based, human; details: 1 μM, 6 hours, top 500 up- and down-regulated genes
[6] = tested on: BCL11A, TRIM24, p21, BAX, PUMA, MDM2, PARP, cleaved caspase-3; test: Immunoblotting of p53 pathway and apoptosis proteins in MV4-11 cells; assay type: cell-based, human; details: 1 μM, 24 hours
Protocol: Cells were washed twice with ice cold phosphate-buffered saline (PBS) and harvested in protein lysis buffer [50 mM Tris (pH 7.4), 100 mM NaCl, 0.1 mM EDTA, 1 mM phenylmethylsulfonyl fluoride, 1 mM β-glycerophosphate, 2.5 mM sodium pyrophosphate, 1 mM Na3VO4, lx protease inhibitor (Roche) and PhosSTOP (Roche)]. Whole cell extracts were separated by SDS-polyacrylamide gel electrophoresis (SDS-PAGE) and electrotransferred onto polyvinylidene difluoride membranes. Membranes were probed with the following antibodies: anti-Ctip1 antibody (Abcam, ab19487), anti-TRIM24 antibody (Bethyl Laboratories, Inc), anti-RUNX1 antibody (A-2), anti-GAPDH (FL-335), anti-p21 (C-19), anti-Bax (N-20) antibodies (Santa Cruz Biotechnology, Inc.), anti-RUNX2, anti-RUNX3, anti-p53 antibodies (Cell Signaling Technology), anti-CBFβ antibody (FL-182, Santa Cruz Biotechnology, Inc.), anti-cleaved caspase-3 antibody (5A1E, Cell Signaling Technology), anti-PARP antibody (46D11, Cell Signaling Technology). For secondary antibodies, anti-rabbit IgG, or anti-mosue IgG HRP-linked antibodies (Cell Signaling Technology) were used. Blots were detected using Chemi-Lumi One Super (nacalai tesque, Inc.) and ChemiDoc™ XRS+ Imager (Bio-Rad Laboratories, Inc.), as recommended by the manufacturers. Protein levels were quantified with Image Lab Software (Bio-Rad Laboratories, Inc.).
Briefly, MV4-11 cells were treated with 1 μM Chb-M′ or Chb-50 for 24 hours. The treated cells were dissolved in the protein lysis buffer. Whole cell extracts were resolved by SDS-polyacrylamide gel electrophoresis (SDS-PAGE) and transferred onto polyvinylidene difluoride membranes. The membranes were probed with each antibody. Blots were detected and quantified. As a control, the cells treated with DMSO were used.

SU-Ph2 cells = test: Cell growth inhibition assay, SU-Ph2 cells; assay type: cell-based, human; details: SU-Ph2, 48 hours
[7] = tested on: AML cell lines expressing functional p53 (MV4-11, OCI-AML2, OCI-AML3 and MOLM-13); test: Growth inhibition assay of AML cell lines expressing functional p53; assay type: cell-based, human; details: 48 hours; at between nanomolar to low micromolar levels
Protocol: Growth inhibition of some AML cell lines expressing functional p53 (MV4-11, OCI-AML2, OCI-AML3 and MOLM-13) by PI polyamide conjugates at different concentrations was tested. Briefly, the cells were placed at a density of 1×10^5 cells/mL. Different concentrations of a PI polyamide conjugate (Chb-M′ or Chb-50) were added to media, and the cells were incubated for 48 hours (n=3). The number of viable cells when the PI polyamide conjugate was not added was used as a control (DMSO control). Cell viability was assessed by counting the viable cells with Cell Count Reagent SF (Nacalai tesque, Inc.) and Infinite (registered trademark) 200 PRO multimode reader (TECAN) according to the manufacturer's instructions.

IL3, CSF2 and CSF2RB = test: qRT-PCR of RUNX1 target genes in MV4-11 cells; assay type: cell-based, human; details: 5 μM, 6 hours
MV4-11NR = test: cells; details: Homo sapiens, 48 h, read-out: IC50 (μM) of PRIMA-1 single agent administration
KG1a = test: cells; details: Homo sapiens, KG-1a, 48 h, read-out: IC50 (μM) of PRIMA-1 single agent administration
HL60 = test: cells; details: Homo sapiens, HL-60, 48 h, read-out: IC50 (μM) of PRIMA-1 single agent administration
Kasumi-1 = test: cells; details: Homo sapiens, Kasumi 1, 48 h, read-out: IC50 (μM) of PRIMA-1 single agent administration
THP-1 = test: cells; details: Homo sapiens, THP-1, 48 h, read-out: IC50 (μM) of PRIMA-1 single agent administration
NB4 (p53MT) = test: cells; details: Homo sapiens
UF1 (p53Null) = test: cells; details: Homo sapiens
SU/SR cells [8] = test: Xenograft ALL mouse model (SU/SR); assay type: in vivo; details: NOG mice with SU/SR
A549 cells = test: Xenograft lung cancer mouse model (A549); assay type: in vivo

## O=C(O)CCCc1ccc(N(CCCl)CCCl)cc1 [Chlorambucil]
DU-145 cells
  IC50: 38.1 µM
LNCaP cells
  IC50: 37.6 µM
[1]
  IC50: 18.2 µM
[2]
  IC50 (μM): Not measurable

## Nc1ccn([C@@H]2O[C@H](CO)[C@@H](O)[C@@H]2O)c(=O)n1 [cytarabine, reference compound]
MV4-11 cells
  H&E staining of bone marrow: little change
  hCD45 staining of bone marrow (human leukemia cells): filled with leukemia cells

## CN(C)CCCNC(=O)c1nc(NC(=O)c2nc(NC(=O)c3cc(NC(=O)c4nc(NC(=O)CCCNC(=O)c5cc(NC(=O)c6nc(NC(=O)c7cc(NC(=O)c8cc(NC(=O)CCNC(=O)CCCc9ccc(N(CCCl)CCCl)cc9)cn8C)cn7C)cn6C)cn5C)cn4C)cn3C)cn2C)cn1C [Chb-50]
[3]
  Gene expressions of p53 suppressors BCL11A and TRIM24: down-regulated
  mRNA expression level of p53: unchanged
  mRNA expression levels of p21 and PUMA: increased
SU/SR cells [4]
  IC50: 1420 nM
[5]
  Gene expression pattern vs cells with all RUNX family members knockdown: significantly correlated
[6]
  Cleaved form of PARP and cleaved caspase-3 (apoptosis): emergence
  Protein expression levels of p53 and downstream proteins (p21, BAX): increased
  Protein expression levels of suppressors of p53 (BCL11A and TRIM24): reduced
SU-Ph2 cells
  IC50 compared with that of imatinib: lower IC50 values
[7]
  Growth inhibition of AML cells: highly effective
IL3, CSF2 and CSF2RB
  Expressions of RUNX1 target genes (IL3, CSF2, and CSF2RB), mRNA: effectively inhibited

## O=C1C2CCN(CC2)C1(CO)CO [PRIMA-1, 2,2-bis(hydroxymethyl)-1-azabicyclo[2.2.2]octan-3-one]
MV4-11NR
  IC50: 5.5 µM
KG1a
  IC50: > 100 µM
HL60
  IC50: 5.74 µM
Kasumi-1
  IC50: 7.03 µM
THP-1
  IC50: 6 µM

## CC1=C(/C=C/C(C)=C/C=C/C(C)=C/C(=O)O)C(C)(C)CCC1 [ATRA, all-trans-retinoic acid]
NB4 (p53MT); 48 h
  IC50: 75.7 µM
NB4 (p53MT); 72 h
  IC50: 60.1 µM
UF1 (p53Null); 48 h
  IC50: 12.4 µM
UF1 (p53Null); 72 h
  IC50: 10.3 µM

## Cc1ccc(NC(=O)c2ccc(CN3CCN(C)CC3)cc2)cc1Nc1nccc(-c2cccnc2)n1 [imatinib, reference compound]
SU/SR cells [8]
  H&E staining of bone marrow: little change
  Invasion of liver by transplanted PhALL cells (hCD45 staining): not inhibited
  Invasion of spleen by transplanted PhALL cells (hCD45 staining), compared with liver: same results
  hCD45 staining of bone marrow (human leukemia cells): filled with leukemia cells

## COc1cc2ncnc(Nc3ccc(F)c(Cl)c3)c2cc1OCCCN1CCOCC1 [gefitinib, reference compound]
A549 cells; A549 xenograft
  Effect on the lung cancer model: did not show effect
A549 cells; day 14 after transplantation
  H&E staining of lung tissue (lung cancer cells in pulmonary alveoli): densely filled with lung cancer cells
A549 cells; day 14 after transplantation, after 2 administrations
  Brightness of luciferase (IVIS), lung: increased
A549 cells; day 21 after transplantation, after total 4 administrations
  Brightness of luciferase (IVIS), lung: increased
